From PMC10301603, “Potent and Selective Benzothiazole-Based Antimitotics with Improved Water Solubility: Design, Synthesis, and Evaluation as Novel Anticancer Agents” (Pharmaceutics, 2023)

Experiments:
[1] = system: U87MG cells; assay: Lactate dehydrogenase (LDH) release assay; format: cell-based, human; settings: 72 h
Method: CytoTox96® Non-Radioactive Cytotoxicity Assay kit (Promega, Madison, WI, USA) was used to measure the release of lactate dehydrogenase (LDH) by following the previously described method in [46]. Briefly, U87 MG or HEK-293 cells were incubated for 72 h with compounds 8, 9, or 14 at concentrations ranging from 10^−9 to 10^−6 M for U87 MG cells, and from 10^−4 to 10^−3 M for HEK-293 cells. After treatment, the supernatants were collected, and the intact attached cells were lysed using 0.1% (w/v) Triton X-100 in (0.9%) NaCl solution. Both the LDH released to culture media, as well as the LDH content within the cells, were determined spectrophotometrically at 490 nm on a 96-well plate reader (Infinite 200, Tecan, Salzburg, Austria) by following the manufacturer’s instructions. LDH release was defined by the ratio of LDH released/total LDH present in the cells, with the total LDH being 100%. All the samples were run in quadruplicate.

[2] = system: GL261 cells; assay: Cell growth inhibition assay (MTT); format: cell-based, murine
Summary of the method: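 MTT read-out of antiproliferative activity 72 h after compound addition to attached cells grown in DMEM with 10% FBS at 37 °C, 5% CO2. IC50 derived from concentration series spanning 10^−10 to 10^−2 M, measured in triplicate and repeated three times.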

[3] = system: HeLa cells; assay: Cell cycle analysis (PI, flow cytometry); format: cell-based, human; settings: 8 and 14 200 nM, 9 500 nM
Method: (§1) An amount of 8 × 10^4 cells/mL (HeLa, MCF7, or U87 MG cells) were seeded in 6-well plates (2 mL/well) and incubated in complete DMEM medium (see above) at 37 °C and 5% CO2 atmosphere for 24 h. Then, the medium was replaced with fresh complete DMEM in the presence or absence of the selected compounds (8, 9, and 14). The concentration of the compounds was selected according to their IC50 value for the antiproliferative activity in each cell line (see above, Section 2.4.4). HeLa cells were treated with 200 nM of compounds 8 and 14 and 500 nM of compound 9; MCF7 cells were treated with 100 nM of compounds 8 and 14 and 500 nM of compound 9; and U87 MG cells were treated with 50 nM of compound 8 and 100 nM of compounds 9 and 14. Untreated cells were used as negative controls. Cells were harvested 24, 48, or 72 h following treatment and fixed in ice-cold ethanol/PBS (7:3) overnight. Cells were then washed twice with PBS, suspended in PBS, and incubated overnight in darkness with 0.2 mg/mL RNase A (Sigma-Aldrich, St. Louis, MO, USA), 50 µg/mL propidium iodide (Sigma-Aldrich, St. Louis, MO, USA), and Triton 10× at room temperature. BD Accuri™ C6 Plus Flow Cytometer (BD Biosciences) was used to analyze samples, and BD Accuri™ C6 Software (version 1.0.264.21) was used for data analysis.

[4] = system: MCF7 cells; assay: Cell cycle analysis (PI, flow cytometry); format: cell-based, human; settings: 8 and 14 100 nM, 9 500 nM
Method: as §1

Structure (SMILES) | LDH release ([1]; 1 nM) | LDH release ([1]; 10 nM) | cell death (LDH release) ([1]; above 100 nM) | IC50 ([2]; Mus musculus, GL261, 72 h after drug exposure) | G2/M population ([3]; 24 h) | G2/M population ([3]; 48 h) | sub G0/G1 population ([3]; 48 h) | sub G0/G1 population ([3]; 72 h) | G2/M population ([4]; MCF7, 24 h) | G2/M population ([4]; MCF7, 48 h) | SubG0/G1 population ([4]; MCF7, 48 h) | G2/M population ([4]; MCF7, 72 h) | SubG0/G1 population ([4]; MCF7, 72 h) | LDH release ([1]; 100 nM) | IC50 ([2]; 72 h after drug exposure)
COc1ccc2nc(N(C=O)Cc3cccnc3)sc2c1 [Compound 14, N-(6-methoxybenzo[d]thiazol-2-yl)-N-(pyridin-3-ylmethyl)formamide] | around 10% | ~20% | 100% | 35 nM | 56% | 60% | 14–18% | 43% | 40% | 30–35% | 27% | 30–35% | 33% |  | 
CCNC(=O)N(Cc1cccnc1)c1nc2ccc(OC)cc2s1 [Compound 8] | ~40% | over 60% |  |  | 80% | 58% | 14–18% | 52% | 32% |  | 9% |  | 26% | 100% | 25 nM
